Results reported in PubChem BioAssay AID1626 (SRMLSC, 2009).

Test system: M. tuberculosis H37Rv growth inhibition
Experiment: M. tuberculosis H37Rv growth inhibitors, H37Rv strain (AID 1626)
Settings: for IC90: measured here: IC90 against H37Rv; for CC50: measured here: Vero cell cytotoxicity

Structure (SMILES) | IC50 | IC90 | CC50
CCn1cc(CNC(=O)c2cc([N+](=O)[O-])c(C)c([N+](=O)[O-])c2)cn1 | 0.547 µM | 0.874 µM | 
Cc1ccc2nc(/N=C(\N)NC(=O)NC3CCCCC3)nc(C)c2c1 | 5.92 µM | 6.73 µM | 25.3 µM
O=C(/C=C/c1ccccc1)/C=C/c1ccccc1 | 5.86 µM | 6.68 µM | 31.2 µM
CCOc1ccc2nc(NC(=O)c3cnc(C)cn3)sc2c1 | 4.76 µM | > 100 µM | 40 µM
CC(C)OC(=O)CSc1ncnc2c1cnn2-c1ccccc1 | 8.75 µM | 25.2 µM | 
CCOC(=O)c1cc(C)nc(Sc2ccc(C)cc2)c1C#N | 12.7 µM | > 100 µM | > 40 µM
Cc1ccc2cc(/C=C/C(=O)c3ccco3)c(Cl)nc2c1 | 19.3 µM | > 100 µM | > 40 µM
Cc1cc(C)n(-c2nc(Nc3ccccc3C)nc(-n3nc(C)cc3C)n2)n1 | 88.4 µM | > 100 µM | 
O=C(Nc1nc(-c2ccncc2)cs1)C1c2ccccc2Oc2ccccc21 |  |  | > 40 µM
CCCNC(=O)CSc1nnc(-c2ccc(F)cc2)o1 | 5.88 µM | > 100 µM | 
OC(COCC(F)(F)C(F)(F)C(F)(F)C(F)F)Cn1c2ccc(Cl)cc2c2cc(Cl)ccc21 (stereo not drawn) | 7.11 µM | 9.92 µM | 13.3 µM
CCOC(=O)c1ccc(NC(=O)CCNC(=O)c2ccc([N+](=O)[O-])cc2)cc1 |  | > 100 µM | 
CN(C)CCNc1nc2sc3c(c2c(=O)n1CCc1ccccc1)CCCCC3 | 8.57 µM | 11.1 µM | 12 µM
O=C1CCCCc2sc(Br)c([N+](=O)[O-])c2N1 | 8.43 µM | 15.4 µM | 14.4 µM
CCC(=O)c1coc2ccc(O)cc12 | 11.1 µM | > 100 µM | 
COc1c(F)c(F)c(C(=O)Nc2ccc(N3CCN(Cc4ccccc4)CC3)cc2)c(F)c1F | 35.9 µM | > 100 µM | 27.5 µM
O=[N+]([O-])c1cccnc1N1CCC(c2cc(-c3cccc(C(F)(F)F)c3)n[nH]2)CC1 | 6.34 µM | 11 µM | > 40 µM
O=C1c2ccc3c4c(ccc(c24)C(=O)N1CCCCO)C(=O)N(CCCCO)C3=O | 7.04 µM | 12.9 µM | 5.2 µM
Cc1cc(C)c(-c2csc(NC(=O)/C=C/c3cccs3)n2)c(C)c1 | 4.66 µM | 8.18 µM | > 40 µM
CC1CCN(c2nc(/C=C/c3ccccc3)nc3ccccc23)CC1 | 10.1 µM | 12.8 µM | > 40 µM
Cc1ccc(-c2c[n+](CC(=O)Nc3nc(-c4ccc(F)cc4)cs3)c3n2CCC3)cc1 | 4.87 µM | 7.09 µM | 

Structure (SMILES) | IC50 | IC90 | CC50
CC(=O)Nc1cccc(C(=O)/C=C/c2ccc(C)cc2)c1 | 33.7 µM | > 100 µM | 13.7 µM
Cn1c(=O)[nH]c(=O)c2c1nc(N1CCCCC1)n2CCCSc1nc2ccccc2s1 |  |  | > 40 µM
O=C(Nc1nc(-c2ccccn2)cs1)c1cc(Cl)ccc1[N+](=O)[O-] | 0.87 µM | 2.24 µM | 2.24 µM
Cc1cc(NC(=O)CCN2C(=O)C3C4C=CC(C4)C3C2=O)ccc1Br (stereo not drawn) | 35.3 µM | > 100 µM | 
COC(=O)CN1C(c2cccc(Cl)c2)=Nc2ccc(Cl)cc2C1c1ccccc1 (stereo not drawn) | 11.9 µM | 13.6 µM | 
CCc1ccc2c(c1)C1(C(=O)N2)N2CCCC2C(C(=O)c2ccc3ccccc3c2)C12C(=O)Nc1ccccc12 (stereo not drawn) | 2.97 µM | > 100 µM | 17.8 µM
CCCCCCCCOC(=O)c1c(CSC(=N)N)n(C)c2cc(Br)c(OC(C)=O)cc12 | 11.4 µM | 15 µM | 
O=C(OCC(=O)c1c[nH]c2ccccc12)c1ccc([N+](=O)[O-])s1 | 1.21 µM | 1.93 µM | 
CC(C)OC(=O)c1cc(C(=O)c2cc(Cl)ccc2O)coc1=N | 28.2 µM | > 100 µM | 
O=C(Nc1nnc(-c2ccc3c(c2)OCCO3)o1)c1ccc(Cc2ccccc2)cc1 | 1.7 µM | > 100 µM | 38.1 µM
O=c1[nH]c(-c2ccccn2)nc2ccccc12 | 5.87 µM | 6.72 µM | > 40 µM
CCOC(=O)c1ccc(-n2c(CN(CC)CC)nc3ccc([N+](=O)[O-])cc3c2=O)cc1 | 54.1 µM | > 100 µM | 
O=C(Nc1ncc(Cc2ccccc2)s1)c1cccs1 | 49 µM | > 100 µM | > 40 µM
CC(C)(C)c1ccccc1OCCCCCn1ccnc1 | 8.29 µM | 10.9 µM | > 40 µM
O=S1(=O)C=C(Sc2nc3cc(Cl)ccc3o2)c2ccccc21 | 2.9 µM | 3.18 µM | 16.1 µM
Cc1cc(-c2c(C)[nH]n(-c3ccccc3)c2=O)n[nH]1 | 10.5 µM | > 100 µM | 36.2 µM
CCCCCc1cc(=O)oc2c(C(CCN3CCCCC3)c3ccc(OC)cc3)c(OC)cc(OC)c12 (stereo not drawn) | 2.86 µM | 3.91 µM | 14.9 µM
CC(Oc1ccc(Cl)cc1Cl)c1nc(-c2ccc(NC(=O)c3ccncc3)cc2)no1 (stereo not drawn) | 33.5 µM | > 100 µM | > 40 µM
O=C(/C=C/c1ccc(-c2ccc(F)cc2)o1)N1CCCC1 | 14 µM | > 100 µM | 
O=C(CCCC(=O)OCC(=O)c1cccs1)Nc1ccc(Oc2ccccc2)cc1 | 17.4 µM | > 100 µM | 
